Experiments:
[1] = tested on: Laodelphax striatella; experiment: whole plant or invertebrate; details: Laodelphax striatellus, soil, 72 h, soil irrigation; for mortality at 0.005 mg/seedling: read-out: Mortality of single agent against Laodelphax striatella, single agent 0.005 mg/Seedling
Method: After the rice seedling was left to stand for 3 days, second instar larvae were released thereto. Thereafter, the larvae were left to stand in a thermostatic chamber (16 hours of light period-8 hours of dark period) at 25° C. […] The test was performed in duplicate. Mortality of larvae (%)={number of dead larvae/(number of survived larvae+number of dead larvae)}×100
B: 100−(mortality of larvae or adults when treated only with each of imidacloprid, fipronil, chlorantraniliprole, spinosad, clothianidin, dinotefuran, sulfoxaflor, pymetrozine, thiamethoxam, flupyradifurone and cycloxaprid))
(§1) Method for Judging Synergistic Effects
When the mortality against Laodelphax striatella in the case of a mixture with another agent exceeded the theoretical value by the Colby's equation, a synergistic effect was judged to be present.

[2] = format: in vivo; details: single agent 0.125 mg/seedling; soil irrigation; seven days after inoculation
[3] = tested on: Plutella xylostella; experiment: Reference Test Example 1 Pest control test of Plutella xylostella (foliar treatment, single agent); format: in vivo
From the text: (§2) After an air drying process, second instar larvae were released thereto. […] Test in duplicate.

[4] = tested on: Spodoptera litura; experiment: Reference Test Example 2 Pest control test of Spodoptera litura (foliar treatment, single agent); format: in vivo; details: 72 h
From the text: After an air drying process, third instar larvae were released thereto. […] Test in duplicate.

[5] = tested on: Aphis gossypii; experiment: Reference Test Example 3 Pest control test of Aphis gossypii (foliar treatment, single agent); format: in vivo
Method: After an air drying process, first instar larvae were released thereto. Thereafter, the larvae were left to stand in a thermostatic chamber (16 hours of light period-8 hours of dark period) at 25° C. […] Test in duplicate. Mortality (%)={number of dead larvae/(number of survived larvae+number of dead larvae)}×100

[6] = tested on: Laodelphax striatella; experiment: Reference Test Example 4 Pest control test of Laodelphax striatella (foliar treatment, single agent); format: in vivo; details: Laodelphax striatellus, 72 h
From the text: as §2

[7] = tested on: Nilaparvata lugens; experiment: Reference Test Example 5 Pest control test of Nilaparvata lugens (foliar treatment, single agent); format: in vivo; details: 144 h
From the text: as §2

[8] = tested on: Sogatella furcifera; experiment: Reference Test Example 6 Pest control test of Sogatella furcifera (foliar treatment, single agent); format: in vivo; details: 96 h
From the text: as §2

[9] = tested on: Frankliniella occidentalis; experiment: Reference Test Example 9 Pest control test of Frankliniella occidentalis (foliar treatment, single agent); format: in vivo; details: 72 h
Method: After an air drying process, first instar larvae were released to the leaf disk. Thereafter, the larvae were left to stand in a thermostatic chamber (16 hours of light period-8 hours of dark period) at 25° C. […] Test in duplicate. Mortality of larvae (%)={number of dead larvae/(number of survived larvae+number of dead larvae)}×100

[10] = tested on: Trigonotylus caelestialium; experiment: Reference Test Example 10 Pest control test of Trigonotylus caelestialium (dipping treatment); format: in vivo; details: 72 h
Method: After an air drying process, the wheat seedling leaves and stems were placed into a glass tube, and two second instar larvae of Trigonotylus coelestialium were released to the same glass tube. After the larvae were released, the tube was lidded to leave the larvae to stand in a thermostatic chamber at 25° C. In order to supply water to the wheat during the test, water was given to the wheat from the bottom of the glass tube. […] Test in triplicate.

[11] = tested on: Laodelphax striatella; experiment: Reference Test Example 18 Pest control test of Laodelphax striatella (wheat seedling root treatment); format: in vivo; details: wheat seedling roots treated; four days after release; 20 μg/seedling
Method: The drug was absorbed from the roots for 72 hours, and then ten second instar larvae of Laodelphax striatella were each released thereto. […] The test was performed in duplicate.

[12] = tested on: Nilaparvata lugens susceptible species (highly susceptible to imidacloprid); experiment: Reference Test Example 19 Pest control test of Nilaparvata lugens, imidacloprid susceptible species (soil drench); format: in vivo; details: for Insecticidal effects against Nilaparvata lugens (death rate %), Susceptible population: soil drench, six days
Method: (§3) Three days after the treatment, ten second instar larvae of Nilaparvata lugens, which had been collected outdoors and proliferated indoors, were each released to the rice seedling. […] Test in duplicate.
(§4) Furthermore, for comparison, the test against a species of Nilaparvata lugens which is highly susceptible to imidacloprid was performed by the same method as described above, and the results thereof are shown in Table 45. […] Meanwhile, the death rates of imidacloprid at 0.05 mg/seedling were (susceptible species) 100%, (resistant population I) 38% and (resistant population II) 69%, and the insecticidal effect thereof was also low even at a high dose. From the above results, it became obvious that Compound P212 and Compound 1-20 have high insecticidal effects even against Nilaparvata lugens resistance against imidacloprid.
(§5) Further, for the origin of test pests, bugs collected outdoors from the Kumamoto prefecture (I) in 2007 and from the Fukuoka prefecture (II) in 2005 as resistant population of Nilaparvata lugens, and bugs collected from the Kagoshima prefecture and then successively reared indoors for a long time as the imidacloprid susceptible population of Nilaparvata lugens were used.

[13] = tested on: Nilaparvata lugens resistant population I; experiment: Reference Test Example 19 Pest control test of Nilaparvata lugens, resistant population I (soil drench); format: in vivo; details: for Insecticidal effects against Nilaparvata lugens (death rate %), Resistant population I: soil drench, six days
Method: as §3, §4, §5

[14] = tested on: Nilaparvata lugens resistant population II; experiment: Reference Test Example 19 Pest control test of Nilaparvata lugens, resistant population II (soil drench); format: in vivo; details: for Insecticidal effects against Nilaparvata lugens (death rate %), Resistant population II: soil drench, six days
Method: as §3, §4, §5

[15] = tested on: Laodelphax striatella; experiment: whole plant or invertebrate; format: in vivo
Method: (§6) After an air drying process, second instar larvae were released thereto. […] The test was performed in duplicate.
as §1

[16] = tested on: Aphis gossypii; experiment: whole plant or invertebrate; format: in vivo; details: Aphis gossypii
Method: The test was performed in duplicate.
as §1

[17] = tested on: Plutella xylostella; experiment: whole plant or invertebrate; format: in vivo
Method: as §6, §1

[18] = tested on: Chilo suppressalis; format: in vivo; details: single agent 0.0005 mg/seedling; soil irrigation; six days after release
Method: After standing for 3 days, second instar larvae were released thereto. […] The test was performed in duplicate.
as §1

[19] = tested on: Naranga aenescens; format: in vivo; details: single agent 0.01 mg/seedling; soil irrigation; five days after release
Method: After standing for 3 days, first instar larvae were released thereto. […] The test was performed in duplicate.
as §1

[20] = tested on: Callosobruchus chinensis; format: in vivo; details: single agent 0.2 ng/head; topical; one day
Method: A compound of Formula (I) and the insecticide indicated below, prepared in predetermined concentrations using acetone, were separately topically applied to the back of the same adult Callosobruchus chinensis. […] The test was performed in duplicate. Insect mortality (%)={number of dead insects/(number of survived insects+number of dead insects)}×100
(A: 100−(insect mortality for treatment with only Compound P212)
B: 100−(insect mortality for treatment with only the insecticide fipronil or imidacloprid))
as §1

C=CCOC1=NS(=O)(=O)c2ccccc21 [Probenazole]
mortality at 0.5 mg/seedling ([1]; read-out: Mortality of single agent against Laodelphax striatella, single agent 0.5 mg/Seedling): 9% | Preventive value (rice blast, number of lesions) [2]: 96.7

FC(F)(F)C(=S)/N=c1\ccccn1Cc1ccc(Cl)nc1 [Compound 1-20, N-[1-((6-chloropyridin-3-yl)methyl)pyridin-2(1H)-ylidene]-2,2,2-trifluoroethanethioamide]
mortality at 100 ppm ([3]; Plutella xylostella, foliar, 72 h): ≥ 80% | Plutella xylostella (Reference Test Example 1), mortality of larvae ([3]; foliar treatment, single agent): 100% | mortality at 500 ppm [4]: ≥ 80% | mortality at 100 ppm ([5]; Aphis gossypii, foliar, 72 h): ≥ 80% | Aphis gossypii (Reference Test Example 3), mortality of larvae ([5]; foliar treatment, single agent): 100% | mortality at 100 ppm [6]: ≥ 80% | mortality at 100 ppm [7]: ≥ 80% | mortality at 100 ppm [8]: ≥ 80% | mortality at 500 ppm [9]: ≥ 80% | mortality at 50 ppm [10]: ≥ 80% | Laodelphax striatella (Reference Test Example 18), mortality of larvae [11]: 100% | death rates of larvae ([12]; susceptible species, 0.005 mg/seedling, six days after the release): 100% | Insecticidal effects against Nilaparvata lugens (death rate %), Susceptible population ([12]; throughput 0.005 mg/seedling): 100% | Insecticidal effects against Nilaparvata lugens (death rate %), Susceptible population ([12]; throughput 0.01 mg/seedling): 95% | death rates of larvae ([13]; resistant population I, 0.005 mg/seedling, six days after the release): 77% | Insecticidal effects against Nilaparvata lugens (death rate %), Resistant population I ([13]; throughput 0.005 mg/seedling): 77% | Insecticidal effects against Nilaparvata lugens (death rate %), Resistant population I ([13]; throughput 0.01 mg/seedling): 100% | death rates of larvae ([14]; resistant population II, 0.005 mg/seedling, six days after the release): 85% | Insecticidal effects against Nilaparvata lugens (death rate %), Resistant population II ([14]; throughput 0.005 mg/seedling): 85% | Insecticidal effects against Nilaparvata lugens (death rate %), Resistant population II ([14]; throughput 0.01 mg/seedling): 100% | mortality at 0.005 mg/seedling [1]: 12% | Theoretical value by Colby's equation ([15]; Laodelphax striatella foliar, single agent 0.625 ppm (other component 0)): 90% | mortality at 0.625 ppm ([15]; Laodelphax striatellus, foliar, 72 h, read-out: Mortality of single agent against Laodelphax striatella): 90% | mortality at 0.625 ppm ([16]; foliar, 72 h, read-out: Mortality of single agent against Aphis gossypii): 19% | Theoretical value by Colby's equation ([16]; single agent 0.625 ppm (other component 0)): 19%

N#Cc1nn(-c2c(Cl)cc(C(F)(F)F)cc2Cl)c(N)c1[S+]([O-])C(F)(F)F (stereo not shown) [Fipronil]
mortality at 0.001 mg/seedling ([1]; read-out: Mortality of single agent against Laodelphax striatella, single agent 0.001 mg/Seedling): 0% | mortality at 0.005 mg/seedling [1]: 26% | Theoretical value by Colby's equation ([17]; 0.04 ppm): 50% | mortality at 0.04 ppm ([17]; Plutella xylostella, foliar, 72 h, read-out: Mortality of single agent against Plutella xylostella, single agent 0.04 ppm, cabbage leaf disk spray, three days): 50% | Mortality of single agent against Chilo suppressalis [18]: 40% | Mortality of single agent against Naranga aenescens [19]: 20% | Mortality of single agent against Callosobruchus chinensis [20]: 0%
